Experiments:
Format in all cases: cell-based, human
[1] = system: A549 lung cancer cells; assay: NK cell CD107a / IFNγ flow cytometry against A549; conditions: normal donor PBMCs, vs controls
Source text: FIGS. 24A-24F illustrate that B7-H3 TriKE enhances NK cell function against lung tumor targets. FIG. 24A is a graph showing pooled analysis of proportion of NK cells from healthy donors expressing CD107a+ against A549(N=6) tumor targets. FIG. 24B is a graph showing pooled analysis of proportion of NK cells from healthy donors expressing IFNγ against A549(N=6) tumor targets. FIG. 24C is a graph showing pooled analysis of proportion of NK cells from healthy donors expressing CD107a+ against NCI-H322 (N=5) tumor targets. FIG. 24D is a graph showing pooled analysis of proportion of NK cells from healthy donors expressing IFNγ against NCI-H322 (N=5) tumor targets. FIG. 24E is a graph showing pooled proportion of NK cells from healthy donors (black bars) or lung cancer patients (white bars) expressing CD107a+ against NCI-H460 (N=7). FIG. 24F is a graph showing pooled proportion of NK cells from healthy donors (black bars) or lung cancer patients (white bars) expressing IFNγ against NCI-H460 (N=7). ** p<0.01, *** p<0.001, and **** p<0.0001.
ADCC was measured in a flow cytometry assay by evaluating degranulation via CD107a (lysosomal-associated membrane protein LAMP-1) and intracellular IFNγ production. […] Samples were washed and evaluated in an LSRII flow cytometer (BD Biosciences, San Jose, CA, USA). […]

[2] = system: H929 cells; assay: IncuCyte Zoom NK cell killing of H929
Source text: (§1) FIGS. 8A-8D illustrate the ability of peripheral blood NK cells with or without B7-H3-TriKE to kill myeloma cells in live imaging IncuCyte Zoom assays. FIG. 8A is a graph showing the effects with effector:target (E:T) ratios of 2:1 and 4:1 on H929 cells. FIG. 8B is a graph showing the effects with effector:target (E:T) ratios of 2:1 and 4:1 on MM1S cells. FIG. 8C is a graph showing the effects with effector:target (E:T) ratios of 2:1 and 4:1 on RPMI-8226 cells. FIG. 8D is a graph showing the effects with effector:target (E:T) ratios of 2:1 and 4:1 on U266 cells.
FIGS. 9A-9D illustrate the efficacy of B7-H3-TriKE with the proteasome inhibitor bortezomib (10 nM) and the immunomodulatory drug lenalidomide (5 μM). FIG. 9A is a graph showing the effect of the combination therapy on H929 cells after 48 hours. FIG. 9B is a graph showing the effect of the combination therapy on RPMI-8226 cells after 48 hours. FIG. 9C is a graph showing the effect of the combination therapy on MM1S cells after 48 hours. FIG. 9D is a graph showing the effect of the combination therapy on U266 cells after 48 hours.
The ability of peripheral blood NK cells with or without B7-H3-TriKE to kill myeloma cells was compared in live imaging IncuCyte Zoom assays with escalating doses of TriKE. Maximal killing occurred with 3 nM concentration.
The efficacy of B7-H3-TriKE with the proteasome inhibitor bortezomib (10 nM) and the immunomodulatory drug lenalidomide (5 μM) was also tested. Cytotoxicity curves were compared by repeated measures ANOVA and performed in triplicate.

[3] = system: U266 cells; assay: IncuCyte Zoom NK cell killing of U266; conditions: E:T 2:1 and 4:1
Source text: FIGS. 7A-7B illustrate the ability of peripheral blood NK cells with or without B7-H3-TriKE to kill myeloma cells in live imaging IncuCyte Zoom assays. FIG. 7A is a graph showing the effects with effector:target (E:T) ratios of 2:1 and 4:1 on MM1S cells. FIG. 7B is a graph showing the effects with effector:target (E:T) ratios of 2:1 and 4:1 on U266 cells.
as §1
FIGS. 9A-9D illustrate the efficacy of B7-H3-TriKE with the proteasome inhibitor bortezomib (10 nM) and the immunomodulatory drug lenalidomide (5 μM). FIG. 9A is a graph showing the effect of the combination therapy on H929 cells after 48 hours. FIG. 9B is a graph showing the effect of the combination therapy on RPMI-8226 cells after 48 hours. FIG. 9C is a graph showing the effect of the combination therapy on MM1S cells after 48 hours. […]

[4] = system: prostate cancer cells; assay: Cell index over time, killing of prostate cancer cells
Source text: FIG. 21 is a graph illustrating cell index over time.

Substance	NK cell activation against A549 [1]	NK cell killing of H929 ([2]; E:T 2:1)	NK cell killing of H929 ([2]; E:T 4:1)	NK cell killing of U266 [3]	time to killing of prostate cancer cells after initiation of treatment [4]
cam1615B7-H3: second-generation TriKE: humanized camelid anti-CD16 VHH, human wild-type IL-15, anti-B7-H3 mAb 376.96 scFv; SEQ ID NO:1	significantly and robustly improved NK cell activation	–	–	–	–
B7-H3 TriKE: camelid nanobodies targeting CD16 and B7-H3 joined by IL-15 and two linkers; sequence table equates the name with cam1615B7-H3	–	more potently killed	no difference in killing	significantly enhanced killing	within a couple of hours
